# Reference: US4629737A, “Secondary amines and use in pharmaceutical compositions” (Beecham Group p.l.c., priority 1982, dated 1986)
# Counter-ions that a name gives are not always drawn. Like-named read-outs stand apart in the source and are kept apart here.
# Key:
# blood glucose = assay: Hypoglycaemic activity: reduction in area under blood glucose curve after glucose load; type: in vivo, Female CFLP mice; conditions: Mus musculus, read-out: % Reduction in area under Blood Glucose Curve
# Protocol: Female CFLP mice, weighing approximately 25 g, were fasted for 24 hours prior to the study. The compounds under study were administered orally as an aqueous solution to each of 6 mice. 30 minutes later a blood sample (10 μl) was obtained from the tail for the analysis of blood glucose. Immediately after taking this blood sample, glucose (1 g/Kg body weight) was administered subcutaneously to each mouse. 6 mice were given water as a control. Blood samples were then obtained from each mouse at 30 minute intervals for 120 minutes.
# Compounds that produced a significant (P<0.05) reduction of blood glucose, compared with control mice given water, at any time interval, were considered active. The area under the blood glucose curve over the 2 hour period after the administration of the glucose was calculated for each compound and compared with the value for control animals.
# [1] = Effect on energy expenditure of mice; type: in vivo, Female CFLP mice; conditions: Mus musculus; for response vs control in vivo at 22.1 mg/kg: 22.1 mg/kg po; for response vs control in vivo at 21 mg/kg: 21.0 mg/kg po; for response vs control in vivo at 24.2 mg/kg: 24.2 mg/kg po
# Protocol: Female CFLP mice, each weighing approximately 24 g were given food and water ad lib before and during the experiment. The compounds were dissolved in water by addition of one mole of hydrochloric acid per mole of compound and these solutions were administered orally to each of 12 mice. A further 12 mice were dosed orally with water. The mice were placed in boxes through which air was drawn and the oxygen content of the air leaving the boxes was measured. The energy expenditure of the mice was calculated for 21 hours after dosing from the volume of air leaving the boxes and its oxygen content, following the principles described by J. B. de V. Weir, J. Physiol. (London), 109, 1-9 (1949).
# [2] = po, 21 h, read-out: Mean Energy Expenditure (0-21 h)
# [3] = 25 μmol/Kg oral, 2 h after glucose 1 g/Kg s.c., vs control
# [4] = 0-3 h, read-out: Mean Energy Expenditure (0-3 h)
# [5] = 0-21 h, read-out: Mean Energy Expenditure (0-21 h)
# [6] = 2.5 μmol/Kg oral, 2 h after glucose 1 g/Kg s.c., vs control
# [7] = 12.5 μmol/Kg oral, 2 h after glucose 1 g/Kg s.c., vs control
# [8] = po, 3 h, read-out: Mean Energy Expenditure (0-3 h)
# [9] = 25.1 mg/kg po, 0-3 h, read-out: Mean Energy Expenditure (0-3 h)
compound,measurement,setting,value
"COC(CNC(C)Cc1ccc(OCCO)cc1)c1ccccc1 (stereo not drawn) [Example 21, N-[2-(4-(2-Hydroxyethoxy)phenyl)-1-methylethyl]-2-methoxy-2-phenylethanamine hydrochloride hemihydrate]",inhibition in vivo at 1 µmol/kg,"blood glucose; 1.0 μmol/Kg oral, 2 h after glucose 1 g/Kg s.c., vs control",48%
same,response vs control in vivo at 18.8 mg/kg,[1]; [2],120%
same,response vs control in vivo at 18.8 mg/kg,"[1]; 18.8 mg/kg po, 0-3 h, read-out: Mean Energy Expenditure (0-3 h)",147%
"CNC(=O)COc1ccc(CCC(C)NCC(OC)c2cccc(Cl)c2)cc1 (stereo not drawn) [Example 22, N-[3-(4-Methylaminocarbonylmethoxyphenyl)-1-methylpropyl]-2-methoxy-2-(3-chlorophenyl)ethanamine hydrochloride]",inhibition in vivo at 25 µmol/kg,blood glucose; [3],39%
same,response vs control in vivo at 22.1 mg/kg,[1]; [4],126%
same,response vs control in vivo at 22.1 mg/kg,[1]; [5],107%
"COC(CNC(C)Cc1ccc(OCCN(C)C)cc1)c1cccc(Cl)c1 (stereo not drawn) [Example 23, N-[2-(4-(2-Dimethylaminoethoxy)phenyl)-1-methylethyl]-2-methoxy-2-(3-chlorophenyl)ethanamine dihydrochloride hemihydrate]",inhibition in vivo at 2.5 µmol/kg,blood glucose; [6],35%
same,response vs control in vivo at 23.7 mg/kg,[1]; [2],130%
same,response vs control in vivo at 23.7 mg/kg,"[1]; 23.7 mg/kg po, 0-3 h, read-out: Mean Energy Expenditure (0-3 h)",163%
"COC(CNC(C)Cc1ccc(OCCN)cc1)c1cccc(Cl)c1 (stereo not drawn) [Example 24, N-[2-(4-(2-Aminoethoxy)phenyl)-1-methylethyl]-2-methoxy-2-(3-chlorophenyl)ethanamine dihydrochloride hemihydrate]",inhibition in vivo at 12.5 µmol/kg,blood glucose; [7],51%
same,response vs control in vivo at 22.3 mg/kg,[1]; [2],128%
same,response vs control in vivo at 22.3 mg/kg,"[1]; 22.3 mg/kg po, 0-3 h, read-out: Mean Energy Expenditure (0-3 h)",147%
"CCCOC(CNC(C)Cc1ccc(OCC(=O)OC)cc1)c1cccc(Cl)c1 (stereo not drawn) [Example 25, N-[2-(4-Carbomethoxymethoxyphenyl)-1-methylethyl]-2-^n-propoxy-2-(3-chlorophenyl)ethanamine hydrochloride]",inhibition in vivo at 12.5 µmol/kg,blood glucose; [7],53.5%
same,response vs control in vivo at 22.8 mg/kg,"[1]; 22.8 mg/kg po, 0-3 h, read-out: Mean Energy Expenditure (0-3 h)",137%
same,response vs control in vivo at 22.8 mg/kg,"[1]; 22.8 mg/kg po, 0-21 h, read-out: Mean Energy Expenditure (0-21 h)",105%
"COC(=O)COc1ccc(CC(C)NCC(OC(C)C)c2cccc(Cl)c2)cc1 (stereo not drawn) [Example 26, N-[2-(4-Carbomethoxymethoxyphenyl)-1-methylethyl]-2-isopropoxy-2-(3-chlorophenyl)ethanamine hydrochloride]",inhibition in vivo at 2.5 µmol/kg,"blood glucose; po, 2 h",45%
same,response vs control in vivo at 22.8 mg/kg,[1]; [8],122%
same,response vs control in vivo at 22.8 mg/kg,[1]; [2],103%
"CCCOC(CNC(C)Cc1ccc(OCC(=O)NC)cc1)c1cccc(Cl)c1 (stereo not drawn) [Example 27, N-[2-(4-Methylaminocarbonylmethoxyphenyl)-1-methylethyl]-2-^n propoxy-2-(3-chlorophenyl)ethanamine dihydrochloride hemihydrate]",inhibition in vivo at 2.5 µmol/kg,blood glucose; [6],52%
same,response vs control in vivo at 25.1 mg/kg,[1]; [2],115%
same,response vs control in vivo at 25.1 mg/kg,[1]; [9],143%
"CNC(=O)COc1ccc(CC(C)NCC(OC(C)C)c2cccc(Cl)c2)cc1 (stereo not drawn) [Example 28, N-[2-(4-Methylaminocarbonylmethoxyphenyl)-1-methylethyl]-2-isopropoxy-2-(3-chlorophenyl)ethanamine dihydrochloride hemihydrate]",inhibition in vivo at 2.5 µmol/kg,blood glucose; [6],55%
same,response vs control in vivo at 25.1 mg/kg,[1]; [9],132%
same,response vs control in vivo at 25.1 mg/kg,"[1]; 25.1 mg/kg po, 0-21 h, read-out: Mean Energy Expenditure (0-21 h)",113%
"CNC(=O)c1ccc(CC(C)NCC(OC)c2cccc(Cl)c2)cc1 (stereo not drawn) [Example 30, N-[2-(4-N'-Methylcarboxamidophenyl)-1-methylethyl]-2-methoxy-2-(3-chlorophenyl)ethanamine hydrochloride]",inhibition in vivo at 12.5 µmol/kg,blood glucose; [7],26.5%
same,response vs control in vivo at 19.9 mg/kg,[1]; [2],115%
same,response vs control in vivo at 19.9 mg/kg,"[1]; 19.9 mg/kg po, 0-3 h, read-out: Mean Energy Expenditure (0-3 h)",119%
"COC(CNC(C)Cc1ccc(CO)cc1)c1cccc(Cl)c1 (stereo not drawn) [Example 31, N-[2-(4-Hydroxymethylphenyl)-1-methylethyl]-2-methoxy-2-(3-chlorophenyl)ethanamine hydrochloride]",inhibition in vivo at 12.5 µmol/kg,"blood glucose; po, 2 h",29%
same,response vs control in vivo at 18.5 mg/kg,[1]; [8],103%
same,response vs control in vivo at 18.5 mg/kg,[1]; [2],126%
"CCOC(CNC(C)Cc1ccc(C(=O)OC)cc1)c1cccc(Cl)c1 (stereo not drawn) [Example 33, N-[2-(4-Carbomethoxyphenyl)-1-methylethyl]-2-ethoxy-2-(3-chlorophenyl)ethanamine hydrochloride hemihydrate]",inhibition in vivo at 25 µmol/kg,blood glucose; [3],52%
same,response vs control in vivo at 21.1 mg/kg,[1]; [2],122%
same,response vs control in vivo at 21.1 mg/kg,"[1]; 21.1 mg/kg po, 0-3 h, read-out: Mean Energy Expenditure (0-3 h)",148%
"CCOC(CNC(C)Cc1ccc(C(=O)NC)cc1)c1cccc(Cl)c1 (stereo not drawn) [Example 34, N-[2-(4-N'-Methylcarboxamidophenyl)-1-methylethyl]-2-ethoxy-2-(3-chlorophenyl)ethanamine hydrochloride]",inhibition in vivo at 25 µmol/kg,blood glucose; [3],34%
same,response vs control in vivo at 20.6 mg/kg,[1]; [2],116%
same,response vs control in vivo at 20.6 mg/kg,"[1]; 20.6 mg/kg po, 0-3 h, read-out: Mean Energy Expenditure (0-3 h)",148%
"CNCc1ccc(CC(C)NCC(OC)c2cccc(Cl)c2)cc1 (stereo not drawn) [Example 35, N-[2-(4-N'-Methylaminomethylphenyl)-1-methylethyl]-2-methoxy-2-(3-chlorophenyl)ethanamine dihydrochloride]",inhibition in vivo at 12.5 µmol/kg,blood glucose; [7],10%
same,response vs control in vivo at 21 mg/kg,[1]; [4],124%
same,response vs control in vivo at 21 mg/kg,[1]; [5],123%
"COC(=O)COc1ccc(CC(C)NCC(OC)c2cc3ccccc3o2)cc1 (stereo not drawn) [Example 36, N-[2-(4-Carbomethoxymethoxyphenyl)-1-methylethyl]-2-methoxy-2-(2-benzofuranyl)ethanamine hydrochloride]",inhibition in vivo at 2.5 µmol/kg,"blood glucose; po, 2 h",30%
same,response vs control in vivo at 21.6 mg/kg,[1]; [8],131%
same,response vs control in vivo at 21.6 mg/kg,[1]; [2],104%
"CNC(=O)COc1ccc(CC(C)NCC(OC)c2cc3ccccc3o2)cc1 (stereo not drawn) [Example 37, N-[2-(4-Methylaminocarbonylmethoxyphenyl)-1-methylethyl]-2-methoxy-2-(2-benzofuranyl)ethanamine dihydrochloride]",inhibition in vivo at 1 µmol/kg,"blood glucose; po, 2 h",26%
same,response vs control in vivo at 23.6 mg/kg,[1]; [8],134%
same,response vs control in vivo at 23.6 mg/kg,[1]; [2],106%
"COc1cccc(CC(C)NCC(OC)c2cccc(Cl)c2)c1 (stereo not drawn) [Example 39, N-[2-(3-Methoxyphenyl)-1-methylethyl]-2-methoxy-2-(3-chlorophenyl)ethanamine hydrochloride]",inhibition in vivo at 25 µmol/kg,"blood glucose; po, 2 h",15%
same,response vs control in vivo at 18.5 mg/kg,[1]; [8],130%
same,response vs control in vivo at 18.5 mg/kg,[1]; [2],103%
"COC(CNC(C)Cc1ccc(SC(C)C)cc1)c1cccc(Cl)c1 (stereo not drawn) [Example 40, N-[2-(4-Isopropylthiophenyl)-1-methylethyl]-2-methoxy-2-(3-chlorophenyl)ethanamine hydrochloride]",inhibition in vivo at 12.5 µmol/kg,"blood glucose; po, 2 h",31%
same,response vs control in vivo at 20.7 mg/kg,[1]; [8],128%
same,response vs control in vivo at 20.7 mg/kg,[1]; [2],111%
"COC(CNC(C)Cc1ccc(N(C)C)cc1)c1cccc(Cl)c1 (stereo not drawn) [Example 41, N-[2-(4-Dimethylaminophenyl)-1-methylethyl]-2-methoxy-2-(3-chlorophenyl)ethanamine dihydrochloride hemihydrate]",inhibition in vivo at 12.5 µmol/kg,"blood glucose; po, 2 h",45%
same,response vs control in vivo at 21.4 mg/kg,[1]; [8],107%
same,response vs control in vivo at 21.4 mg/kg,[1]; [2],116%
"CCCCOC(CNC(C)Cc1ccc(OCC(=O)OC)cc1)c1cccc(Cl)c1 (stereo not drawn) [Example 42, N-[2-(4-Carbomethoxymethoxyphenyl)-1-methylethyl]-2-^n butoxy-2-(3-chlorophenyl)ethanamine hydrochloride]",inhibition in vivo at 5 µmol/kg,"blood glucose; 5 μmol/Kg oral, 2 h after glucose 1 g/Kg s.c., vs control",37%
same,response vs control in vivo at 23.5 mg/kg,[1]; [2],114%
same,response vs control in vivo at 23.5 mg/kg,"[1]; 23.5 mg/kg po, 0-3 h, read-out: Mean Energy Expenditure (0-3 h)",158%
"CCCCOC(CNC(C)Cc1ccc(OCC(=O)NC)cc1)c1cccc(Cl)c1 (stereo not drawn) [Example 43, N-[2-(4-Methylaminocarbonylmethoxyphenyl)-1-methylethyl]-2-^n butoxy-2-(3-chlorophenyl)ethanamine hydrochloride hemihydrate]",inhibition in vivo at 2.5 µmol/kg,blood glucose; [6],31%
same,response vs control in vivo at 24.2 mg/kg,[1]; [4],144%
same,response vs control in vivo at 24.2 mg/kg,[1]; [5],105%
